What was measured:
[1] = target: ACVR2A (Homo sapiens, UniProt P27037); assay: LanthaScreen Eu kinase binding assay, BMP type II receptor ACVR2A; details: 10-point titration from 10 μM, 3-fold serial dilution, Life Technologies
Excerpt: (§1) For the detailed description of LanthaScreen™ Eu kinase binding assay condition, please see: https://www.thermofisher.com/us/en/home/industrial/pharma-biopharma/drug-discovery-development/target-and-lead-identification-and-validation/kinasebiology/kinase-activity-assays/lanthascreentm-eu-kinas e-binding-assay/lanthascreen-eu-kinase-binding-assay-validation-table.html.

[2] = target: ACVR2B (Homo sapiens, UniProt Q13705); assay: LanthaScreen Eu kinase binding assay, BMP type II receptor ACVR2B; details: 10-point titration from 10 μM, 3-fold serial dilution, Life Technologies
ACVR2B, sequence (Q13705 19-512): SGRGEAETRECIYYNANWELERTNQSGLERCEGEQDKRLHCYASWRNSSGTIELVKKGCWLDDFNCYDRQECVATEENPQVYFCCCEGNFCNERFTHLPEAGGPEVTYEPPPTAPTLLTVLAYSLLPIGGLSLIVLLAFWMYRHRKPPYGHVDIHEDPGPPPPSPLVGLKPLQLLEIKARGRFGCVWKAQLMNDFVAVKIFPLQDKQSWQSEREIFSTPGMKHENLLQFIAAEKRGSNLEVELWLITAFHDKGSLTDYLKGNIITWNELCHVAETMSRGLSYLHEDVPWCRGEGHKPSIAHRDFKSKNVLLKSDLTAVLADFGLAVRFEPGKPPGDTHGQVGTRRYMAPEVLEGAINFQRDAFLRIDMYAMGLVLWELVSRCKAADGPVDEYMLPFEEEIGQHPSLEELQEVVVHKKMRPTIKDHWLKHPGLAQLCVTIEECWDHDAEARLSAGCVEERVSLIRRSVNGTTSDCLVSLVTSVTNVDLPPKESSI
Procedure: Kinase Profiling BMP Type II Receptor Experimental Procedure (Life Technologies, 5225 Vernona Road, Madison, Wis. 53744)
The measurement of each compound's half maximal inhibitory concentration (IC50) for BMP type II receptors (ACVR2A, ACVR2B, BMPR2 and TGFbR2) was carried out at Life Technologies by using its 10-point titration (starting concentration: 10 μM with 3-fold serial dilution) LanthaScreen™ biochemical kinase assay protocol. For the detailed description of LanthaScreen™ Eu kinase binding assay condition, please see: https://www.thermofisher.com/us/en/home/industrial/pharma-biopharma/drug-discovery-development/target-and-lead-identification-and-validation/kinasebiology/kinase-activity-assays/lanthascreentm-eu-kinas e-binding-assay/lanthascreen-eu-kinase-binding-assay-validation-table.html.

[3] = target: TGFβR2 (Homo sapiens, UniProt P37173); assay: LanthaScreen Eu kinase binding assay, BMP type II receptor TGFbR2; details: 10-point titration from 10 μM, 3-fold serial dilution, Life Technologies
TGFβR2, sequence (P37173 23-567): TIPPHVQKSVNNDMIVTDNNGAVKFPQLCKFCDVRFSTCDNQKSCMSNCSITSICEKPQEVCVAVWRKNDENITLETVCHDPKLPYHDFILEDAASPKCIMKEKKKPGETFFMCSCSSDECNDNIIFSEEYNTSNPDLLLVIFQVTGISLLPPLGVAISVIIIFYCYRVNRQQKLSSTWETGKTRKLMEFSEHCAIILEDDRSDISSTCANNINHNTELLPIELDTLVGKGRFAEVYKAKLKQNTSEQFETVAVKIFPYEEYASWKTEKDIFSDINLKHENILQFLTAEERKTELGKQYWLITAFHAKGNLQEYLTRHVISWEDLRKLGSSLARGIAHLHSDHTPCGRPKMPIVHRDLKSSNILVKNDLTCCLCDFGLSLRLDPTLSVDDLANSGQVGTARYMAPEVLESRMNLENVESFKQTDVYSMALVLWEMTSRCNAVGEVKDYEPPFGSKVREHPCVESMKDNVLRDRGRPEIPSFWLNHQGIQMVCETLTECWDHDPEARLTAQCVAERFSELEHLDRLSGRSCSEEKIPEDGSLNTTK
Excerpt: as §1

[4] = system: BMP6; assay: Cell assay HTRF BMP6 (Table 15); assay type: cell-based
[5] = system: TGFb; assay: Cell assay HTRF TGFb (Table 15); assay type: cell-based; details: read-out: HRTF TGFb (IC50)
[6] = target: T1, Aldehyde Oxidase (AO) (Homo sapiens, UniProt Q06278); assay: Aldehyde oxidase (AO) oxidation study, metabolic stability in human liver cytosol; assay type: in vitro ADME; details: human liver cytosol 2 mg/ml, 1 μM substrate, 37° C.
T1 construct: tissue Frontage Laboratories (performed the study); host or cells: human liver cytosol (HLC), 2 mg/ml
T1 sequence (Q06278 1-1338): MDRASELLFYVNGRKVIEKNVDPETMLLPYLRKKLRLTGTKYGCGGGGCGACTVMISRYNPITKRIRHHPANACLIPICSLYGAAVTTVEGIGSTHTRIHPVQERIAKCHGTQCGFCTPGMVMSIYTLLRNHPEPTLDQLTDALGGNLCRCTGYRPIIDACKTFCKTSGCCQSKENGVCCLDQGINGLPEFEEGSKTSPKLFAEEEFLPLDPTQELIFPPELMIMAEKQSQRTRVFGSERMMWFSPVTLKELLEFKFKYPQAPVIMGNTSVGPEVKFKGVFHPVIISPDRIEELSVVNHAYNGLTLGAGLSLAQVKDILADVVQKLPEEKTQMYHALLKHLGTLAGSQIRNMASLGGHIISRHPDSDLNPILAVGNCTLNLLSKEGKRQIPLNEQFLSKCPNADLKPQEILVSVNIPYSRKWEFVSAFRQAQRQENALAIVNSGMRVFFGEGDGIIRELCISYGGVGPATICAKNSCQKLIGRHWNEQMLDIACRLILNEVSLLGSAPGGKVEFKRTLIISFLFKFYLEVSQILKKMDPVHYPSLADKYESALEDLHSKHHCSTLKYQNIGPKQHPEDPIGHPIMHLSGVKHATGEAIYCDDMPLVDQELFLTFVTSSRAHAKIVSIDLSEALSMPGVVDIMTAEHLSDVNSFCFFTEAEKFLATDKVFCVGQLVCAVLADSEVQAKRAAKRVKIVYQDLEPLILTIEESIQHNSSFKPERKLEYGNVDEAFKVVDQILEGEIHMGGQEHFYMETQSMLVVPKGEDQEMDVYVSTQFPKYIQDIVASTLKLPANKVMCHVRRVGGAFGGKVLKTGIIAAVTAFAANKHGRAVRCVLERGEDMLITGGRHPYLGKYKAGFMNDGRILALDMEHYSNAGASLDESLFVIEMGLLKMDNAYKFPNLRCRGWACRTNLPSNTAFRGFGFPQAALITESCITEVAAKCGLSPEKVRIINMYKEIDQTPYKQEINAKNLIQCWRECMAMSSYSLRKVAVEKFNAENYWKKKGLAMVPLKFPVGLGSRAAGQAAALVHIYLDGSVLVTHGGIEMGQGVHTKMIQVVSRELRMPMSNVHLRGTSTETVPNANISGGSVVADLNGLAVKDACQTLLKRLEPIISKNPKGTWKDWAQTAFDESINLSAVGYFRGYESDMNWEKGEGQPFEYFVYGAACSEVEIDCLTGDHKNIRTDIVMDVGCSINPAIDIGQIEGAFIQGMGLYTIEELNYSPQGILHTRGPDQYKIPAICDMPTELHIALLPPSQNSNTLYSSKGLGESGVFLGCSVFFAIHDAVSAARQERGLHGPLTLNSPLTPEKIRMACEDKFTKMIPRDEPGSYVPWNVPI
Procedure: Experimental Procedure for Aldehyde Oxidase (AO) Oxidation Study (Frontage Laboratories (700 Pennsylvania Dr. Exton, Pa. 19341)
Determination of the of metabolic stability in human liver cytosol (HLC) and the identification of corresponding metabolites was done by incubating substrates (1 μM final concentration for metabolic stability or 10 μM final concentration for metabolite ID) with HLC (2 mg/ml, final concentration) in 100 mM potassium phosphate at pH 7.4. The reaction was initiated by adding HLC without preincubation. The mixture was then incubated at 37° C. for 1 h and samples were taken at 0, 30 and 60 min for analysis. The reaction was terminated by adding acetonitrile (ACN) (3×) followed by vortexing for 1 min then centrifuged. For the metabolic stability study, aliquotes of the supernatants were transferred to clean tubes and directly used for LC/MS/MS analysis. For the identification of metabolites, aliquots of supernatants were transferred to clean tubes and dried under a stream of N2. The residue was reconstituted in 30/70 (v/v) acetonitrile/water solution and injected onto LC/UV/MS system.
The instrument and method for the metabolic stability are as following: LC/MS/MS system: Agilent 1100 HPLC interfaced to Sciex API4000 mass spectrometer (ESI); HPLC column: ACE 3 C18-PFP, 50×2.1 mm, 5 μm. […]

ACVR2A, sequence (P27037 20-513): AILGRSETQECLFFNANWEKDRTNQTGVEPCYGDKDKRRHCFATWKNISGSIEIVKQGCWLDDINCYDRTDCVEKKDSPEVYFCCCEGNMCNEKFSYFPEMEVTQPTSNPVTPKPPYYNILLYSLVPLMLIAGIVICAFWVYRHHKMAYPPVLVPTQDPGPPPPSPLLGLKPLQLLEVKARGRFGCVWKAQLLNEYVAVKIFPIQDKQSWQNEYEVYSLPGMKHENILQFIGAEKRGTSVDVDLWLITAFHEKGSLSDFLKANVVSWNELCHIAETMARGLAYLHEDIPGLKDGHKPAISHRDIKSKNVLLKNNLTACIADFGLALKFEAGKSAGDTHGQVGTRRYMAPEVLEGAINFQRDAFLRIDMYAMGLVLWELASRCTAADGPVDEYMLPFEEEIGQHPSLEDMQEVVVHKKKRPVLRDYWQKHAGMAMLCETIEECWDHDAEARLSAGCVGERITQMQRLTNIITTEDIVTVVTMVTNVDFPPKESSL

Compound	IC50 [1] [nM]	IC50 [2] [nM]	IC50 [3] [nM]	IC50 [4] [nM]	IC50 [5] [nM]	30 minutes (%) ([6]; pH 7.4, sample at 30 min)	60 minutes (%) ([6]; pH 7.4, sample at 60 min)
Cc1cc(-c2cnn3cc(N4CCC(N5CCN(C)CC5)CC4)cnc23)c2ccccc2n1 [Compound 8]	1280	745	191	270	2040		
c1ccc2c(-c3cnn4cc(-c5ccc(N6CCNCC6)cc5)cnc34)ccnc2c1 [TRND00262637-13]	14.5	20	8.06	69	9290	0.06	0.02

Reference: patent US20230000869A1, “NOVEL ALK2 INHIBITORS AND METHODS FOR INHIBITING BMP SIGNALING” (The Brigham and Women's Hospital, Inc., priority 2017, published 2023)
